Assay results as given in patent US20260324639A1, “MICROBIOCIDAL PYRAZOLE DERIVATIVES” (SYNGENTA CROP PROTECTION AG, priority 2022, published 2026).

Assays:
Mycosphaerella arachidis = Mycosphaerella arachidis (Cercospora arachidicola)/liquid culture (early leaf spot); type: cell-based; details: liquid culture, PDB, 24° C., growth inhibition photometric 4-5 days after application, read-out: control of Mycosphaerella arachidis compared to untreated control
Experimental: (§1) Conidia of the fungus from cryogenic storage are directly mixed into nutrient broth (PDB potato dextrose broth). After placing a (DMSO) solution of test compound into a microtiter plate (96-well format), the nutrient broth containing the fungal spores is added. The test plates are incubated at 24° C. and the inhibition of growth is determined photometrically 4-5 days after application.

[1] = test system: Puccinia recondita f. sp. tritici; experiment: Puccinia recondita f. sp. tritici/wheat/leaf disc preventative (brown rust); type: in vivo; details: 200 ppm, inoculated 1 day after application, wheat leaf segments cv. Kanzler, assessed 7-9 days after application
Experimental: (§2) Wheat leaf segments cv. Kanzler are placed on agar in multiwell plates (24-well format) and sprayed with the formulated test compound diluted in water. The leaf disks are inoculated with a spore suspension of the fungus 1 day after application. The inoculated leaf segments are incubated at 19° C. and 75% rh under a light regime of 12 h light/12 h darkness in a climate cabinet and the activity of a compound is assessed as percent disease control compared to untreated when an appropriate level of disease damage appears in untreated check leaf segments (7-9 days after application).

[2] = test system: Blumeria graminis f. sp. tritici; experiment: Blumeria graminis f. sp. tritici/wheat/leaf disc preventative (powdery mildew on wheat); type: in vivo; details: 200 ppm, wheat leaf segments cv. Kanzler, inoculated 1 day after application, assessed 6-8 days after application
Experimental: Wheat leaf segments cv. Kanzler are placed on agar in a multiwell plate (24-well format) and sprayed with the formulated test compound diluted in water. The leaf disks are inoculated by shaking powdery mildew infected plants above the test plates 1 day after application. The inoculated leaf disks are incubated at 20° C. and 60% rh under a light regime of 24 h darkness followed by 12 h light/12 h darkness in a climate chamber and the activity of a compound is assessed as percent disease control compared to untreated when an appropriate level of disease damage appears on untreated check leaf segments (6-8 days after application).

Phaeosphaeria nodorum = Phaeosphaeria nodorum (Septoria nodorum)/wheat/leaf disc preventative (glume blotch); type: in vivo; details: 200 ppm, wheat leaf segments cv. Kanzler, inoculated 2 days after application, assessed 5-7 days after application
Experimental: (§3) Wheat leaf segments cv. Kanzler are placed on agar in a multiwell plate (24-well format) and sprayed with the formulated test compound diluted in water. The leaf disks are inoculated with a spore suspension of the fungus 2 days after application. The inoculated test leaf disks are incubated at 20° C. and 75% rh under a light regime of 12 h light/12 h darkness in a climate cabinet and the activity of a compound is assessed as percent disease control compared to untreated when an appropriate level of disease damage appears in untreated check leaf disks (5-7 days after application).

[3] = test system: Puccinia recondita f. sp. tritici; experiment: Puccinia recondita f. sp. tritici/wheat/leaf disc curative (brown rust); type: in vivo; details: 200 ppm, applied 1 day after inoculation, wheat leaf segments cv. Kanzler, assessed 6-8 days after application
Experimental: as §2, with “format).” for “format) and sprayed with the formulated test compound diluted in water.”, “segments” for “disks”, “fungus. Plates are stored in darkness at 19° C. and 75% rh. The formulated test compound diluted in water is applied” for “fungus”, “inoculation.” for “application.”, “The” for “The inoculated”, “(6-8” for “(7-9”

Glomerella lagenarium = Glomerella lagenarium (Colletotrichum lagenarium)/liquid culture (anthracnose); type: cell-based; details: Colletotrichum orbiculare, liquid culture, PDB, 24° C., growth inhibition photometric 3-4 days after application, read-out: control of Glomerella lagenarium compared to untreated control
Experimental: as §1, with “measured” for “determined”, “3-4” for “4-5”

Sclerotinia sclerotiorum = experiment: Sclerotinia sclerotiorum/liquid culture (cottony rot); type: cell-based; details: liquid culture (mycelia fragments), PDB, 24° C., growth inhibition photometric 3-4 days after application, read-out: control of Sclerotinia sclerotiorum compared to untreated control
Experimental: as §1, with “Mycelia fragments of a newly grown liquid culture” for “Conidia”, “fungus” for “fungus from cryogenic storage”, “format)” for “format),”, “material” for “spores”, “3-4” for “4-5”

Alternaria solani = experiment: Alternaria solani/tomato/leaf disc (early blight); type: in vivo; details: 200 ppm; tomato leaf disks cv. Baby; inoculated 2 days after application; assessed 5-7 days after application
Experimental: Tomato leaf disks cv. Baby are placed on agar in multiwell plates (24-well format) and sprayed with the formulated test compound diluted in water. The leaf disks are inoculated with a spore suspension of the fungus 2 days after application. The inoculated leaf disks are incubated at 23° C./21° C. (day/night) and 80% rh under a light regime of 12/12 h (light/dark) in a climate cabinet and the activity of a compound is assessed as percent disease control compared to untreated when an appropriate level of disease damage appears on untreated check disk leaf disks (5-7 days after application).

Botryotinia fuckeliana = Botryotinia fuckeliana (Botrytis cinerea)/liquid culture (gray mould); type: cell-based; details: liquid culture, Vogels broth, 24° C., growth inhibition photometric 3-4 days after application, read-out: control of Botryotinia fuckeliana compared to untreated control
Experimental: as §1, with “(Vogels” for “(PDB potato dextrose”, “3-4” for “4-5”

[4] = test system: Mycosphaerella graminicola; experiment: Mycosphaerella graminicola (Septoria tritici)/liquid culture (Septoria blotch); type: cell-based; details: Zymoseptoria tritici, liquid culture, PDB, 24° C., growth inhibition photometric 4-5 days after application, read-out: control of Mycosphaerella graminicola compared to untreated control
Experimental: as §1

Fusarium culmorum = experiment: microbe, parasite or virus in culture; type: cell-based; details: read-out: control of Fusarium culmorum compared to untreated control
Experimental: as §1, with “3-4” for “4-5”

Pyrenophora teres = experiment: Pyrenophora teres/barley/leaf disc preventative (net blotch); type: in vivo; details: 200 ppm, barley leaf segments cv. Hasso, inoculated 2 days after application, assessed 5-7 days after application
Experimental: as §3, with “Barley” for “Wheat”, “Hasso” for “Kanzler”, “segments” for “disks”, “inoculated” for “inoculated test”, “65%” for “75%”, “as” for “as percent”

Monographella nivalis = Monographella nivalis (Microdochium nivale)/liquid culture (foot rot cereals); type: cell-based; details: liquid culture, PDB, 24° C., growth inhibition photometric 4-5 days after application, read-out: control of Monographella nivalis compared to untreated control
Experimental: as §1

Gibberella zeae = type: in vivo, Gibberella zeae (Fusarium graminearum); details: 200 ppm; preventative; wheat spikelets cv. Monsun; inoculated one day after application; assessed 6-8 days after application

SMILES	inhibition of growth at 20 ppm (Mycosphaerella arachidis)	control of Puccinia recondita f. sp. tritici compared to untreated control [1]	control of Blumeria graminis f. sp. tritici compared to untreated control [2]	control of Phaeosphaeria nodorum compared to untreated control (Phaeosphaeria nodorum)	control of Puccinia recondita f. sp. tritici compared to untreated control [3]	inhibition of growth at 20 ppm (Glomerella lagenarium)	inhibition of growth at 20 ppm (Sclerotinia sclerotiorum)	control of Alternaria solani compared to untreated control (Alternaria solani)	inhibition of growth at 20 ppm (Botryotinia fuckeliana)	inhibition of growth at 20 ppm [4]	inhibition of growth at 20 ppm (Fusarium culmorum)	control of Pyrenophora teres compared to untreated control (Pyrenophora teres)	inhibition of growth at 20 ppm (Monographella nivalis)	control of Gibberella zeae compared to untreated control (Gibberella zeae)
Cc1c([C@H]2CN(C(=O)c3nnn(-c4ccc(F)cc4F)n3)[C@@H](C)c3ccccc32)cnn1C (racemic) [Compound P-42, [2-(2,4-difluorophenyl)tetrazol-5-yl]-[rac-(1S,4S)-4-(1,5-dimethylpyrazol-4-yl)-1-methyl-3,4-dihydro-1H-isoquinolin-2-yl]methanone]	≥ 80%	at least 80%	at least 80%	at least 80%	at least 80%	≥ 80%	≥ 80%	at least 80%	≥ 80%	≥ 80%	≥ 80%	at least 80%	≥ 80%	
C[C@H]1c2ccccc2[C@@H](c2cnn(C)c2Cl)CN1C(=O)c1cn(-c2ncc(F)cc2F)nn1 [Compound P-54, [(1S,4S)-4-(5-chloro-1-methyl-pyrazol-4-yl)-1-methyl-3,4-dihydro-1H-isoquinolin-2-yl]-[1-(3,5-difluoro-2-pyridyl)triazol-4-yl]methanone]	≥ 80%		at least 80%	at least 80%		≥ 80%		at least 80%	≥ 80%	≥ 80%	≥ 80%	at least 80%	≥ 80%	at least 80%
